Data from patent US10912752B2, “Methods and compositions for reducing ocular discomfort” (Brien Holden Vision Institute Limited, priority 2012, dated 2021).
Entries after “also recorded” stand apart in the source; their conditions may differ.

Tests used:
HCLE cells = experiment: MTT cell viability, titration of osmolyte concentration in isotonic medium; type: cell-based, human
Procedure: An immortalized human corneal limbal epithelial (HCLE) cell line (a kind gift from Ilene Gipson, Schepens Eye Research Institute, Boston, Mass.) was used in the study. HCLE cells were cultured as previously described (Garrett et al. Invest Ophthalmol Vis Sci 2008; 49:4844-4849). Briefly, the cells were maintained on plastic at 2×10^4/cm^2 in a keratinocyte serum-free medium (K-SFM; Invitrogen-Gibco, Grand Island, N.Y.), supplemented with 25 μg/mL bovine pituitary extract, 0.2 ng/mL epidermal growth factor (EGF; Invitrogen, Mount Waverley, VIC, Australia), and 0.4 mM CaCl2 and were grown at 37° C. in a 5% carbon dioxide atmosphere. To enhance nutrient composition, the cultures were switched at approximately 50% confluence to a 1:1 mixture of K-SFM and low calcium DMEM/F12 (Invitrogen), to achieve confluence. All the experiments involving the culture of HCLE cells were performed at 37° C. in a 5% carbon dioxide atmosphere unless otherwise indicated.
To determine the optimal concentration of betaine for use in the osmoprotective studies, betaine (Sigma-Aldrich, St. Louis, Mo.; 1.0-200 mM) was prepared in culture medium. […] Following treatment with betaine, cell viability was assessed using the 3-[4,5-dimethylthiazol-2-yl]-2,5-diphenyltetr azoliumbromide (MTT) cell survival assays (Promega, Madison, Wis.).

TNF-α [1] = experiment: TNF-α production by HCLE cells in hyperosmolar medium (ELISA); type: cell-based, human; conditions: 10 mM, 500 mOsm, 16 h, vs hyperosmolar medium without osmolyte
Procedure: Enzyme-linked immunosorbent assay (ELISA) was used to quantify TNF-α. The culture supernatants were collected, centrifuged at 1500 rpm for 10 min to remove cellular debris and stored at −80° C. until processed. Assays were performed according to manufacturer's protocol (R&D Systems, Minneapolis, Minn.).
Cultured human corneal limbal epithelial (HCLE) cells were exposed to culture medium with or without carnitine (10 mM) at 300 mOsm (isotonic), 450 mOsm (moderate), and 500 mOsm (hyperosmotic) for 16 h. Induction of apoptosis was detected by quantification of the proteolytic activity of caspase-8, caspase-9, or caspase-3/7 using caspase activity assays, and production of tumor necrosis factor (TNF)-α, a known apoptosis inducer, using ELISA. Annexin V and Propidium iodine (PI) staining was performed to detect the percentage of apoptotic cells using confocal microscopy and flow cytometry.

IL-17 = experiment: qRT-PCR of mouse conjunctiva, ICES dry eye model; type: in vivo, C57BL/6 mice; conditions: normalized to GAPDH; for mRNA expression of IL-17 vs PBS treatment group: Schedule 1, Day 21, conjunctiva
Source text: (§1) For Schedule 1, six (6×) mice per each group at the end of Day 21 and five (5×) mice from each group at the end of Day 35 post-housing in ICES and undergoing the treatment were sacrificed with an overdose of a mixture of ketamine and xylazine for qRT-PCR evaluation of […] inflammatory responses. On the other hand, for Schedule 2, three (3×) mice were sacrificed at the end of Day 21, and all the other mice were sacrificed at the end of Day 35 post-housing in ICES and undergoing the treatment. Additionally, seven healthy animals which were not housed in ICES and received no treatment were euthanized as healthy controls for comparison.
(§2) For qRT-PCR detection of IL-1β, IL-6, IL-17, TNF-α, and GAPDH, total RNA from conjunctivas (2 eyes/group/schedule) were extracted and pooled from each of the five experimental groups using the RNA isolation kit according to the manufacturer's instructions (PicoPure RNA isolation kit, 40 isolations, Arcturus). cDNA was synthesized from 1-μg of total RNA using random primer and M-MuLV reverse transcriptase. The primer sequences for qRT-PCR detection of these mediators have been designed in preparation for qRT-PCR work (Table 1).
(§3) Expression of IL-1β, IL-6, IL-17, or TNF-α detected at mRNA level from Real-time PCR were normalized to that of the housekeeping gene GAPDH. Total RNA were collected from the pooled conjunctiva from 2 eyes of each group (total 6× eyes per each treatment group were used for qRT-PCR).

IL-1β = experiment: qRT-PCR of mouse conjunctiva, ICES dry eye model; type: in vivo, C57BL/6 mice; conditions: normalized to GAPDH; for mRNA expression of IL-1β vs PBS treatment group: Schedule 1, Day 21, conjunctiva
Source text: as §1, §2, §3

IL-6 = experiment: qRT-PCR of mouse conjunctiva, ICES dry eye model; type: in vivo, C57BL/6 mice; conditions: normalized to GAPDH; for mRNA expression of IL-6 vs PBS treatment group: Schedule 1, Day 21, conjunctiva
Source text: as §1, §2, §3

TNF-α [2] = experiment: qRT-PCR of mouse conjunctiva, ICES dry eye model; type: in vivo, C57BL/6 mice; conditions: normalized to GAPDH; for mRNA expression of TNF-α vs PBS treatment group: Schedule 1, Day 21, conjunctiva
Source text: as §1, §2, §3

[3] = Schedule 2, Day 35, conjunctiva

C[N+](C)(C)CC(=O)[O-] [betaine, trimethylglycine]
betaine concentration not toxic to the cells (HCLE cells; titration 0-200 mM, 300 mOsm medium, 16 h, MTT): up to 40 mM
reduction in TNF-α levels (TNF-α [1]): 40%
mRNA expression of IL-17 vs PBS treatment group (IL-17): statistically significant reduction
mRNA expression of IL-1β vs PBS treatment group (IL-1β): statistically significant reduction
mRNA expression of IL-6 vs PBS treatment group (IL-6): statistically significant reduction
mRNA expression of TNF-α vs PBS treatment group (TNF-α [2]): statistically significant reduction
mRNA expression of TNF-α vs PBS control (C) (TNF-α [2]; [3]): statistically significant reduction

C[N+](C)(C)CC(O)CC(=O)[O-] (stereo not shown) [carnitine, 3-hydroxy-4-(trimethylazaniumyl)butanoate]
concentration optimal to carry out osmoprotective studies (cell viability analysis) (HCLE cells; toxicity of various concentrations): 10000 µM
reduction in TNF-α levels (TNF-α [1]): 25%
mRNA expression of IL-17 vs PBS treatment group (IL-17; listed as B): statistically significant reduction; also recorded: lowest expression level
mRNA expression of IL-17 vs PBS control (C) (IL-17; [3]): statistically significant reduction
mRNA expression of IL-1β vs PBS treatment group (IL-1β; listed as B): statistically significant reduction; also recorded: lowest expression level
mRNA expression of IL-1β vs PBS control (C) (IL-1β; [3]): statistically significant reduction
mRNA expression of IL-6 vs PBS treatment group (IL-6; listed as B): statistically significant reduction; also recorded: lowest expression level
mRNA expression of IL-6 vs PBS control (C) (IL-6; [3]): statistically significant reduction
mRNA expression of TNF-α vs PBS treatment group (TNF-α [2]; listed as B): statistically significant reduction; also recorded: lowest expression level
